According to patent US20110144014A1, “CYTOKINE RECEPTOR MODULATORS AND USES THEREOF” (CENTRE HOSPITALIER UNIVERSITAIRE SAINTE-JUSTINE, priority 2005, published 2011):
Where a SMILES comes first, the peptide text is derived from it. [ ]: non-standard residue; d: D form.

Legend:
IL-1R/IL-1RacP = target: T1, IL-1R/IL-1RacP (Rattus norvegicus, UniProt Q02955+Q63621); assay: PGE2 levels in rat blood serum after IL-1β; type: in vivo; conditions: peptide injected directly in the stomach
T1 construct: 300 g Sprague-Dawley rats were anesthetized with isoflurane; from tissue; host or cells: whole animal (Sprague-Dawley rat)
T1 sequence (Q02955 20-576): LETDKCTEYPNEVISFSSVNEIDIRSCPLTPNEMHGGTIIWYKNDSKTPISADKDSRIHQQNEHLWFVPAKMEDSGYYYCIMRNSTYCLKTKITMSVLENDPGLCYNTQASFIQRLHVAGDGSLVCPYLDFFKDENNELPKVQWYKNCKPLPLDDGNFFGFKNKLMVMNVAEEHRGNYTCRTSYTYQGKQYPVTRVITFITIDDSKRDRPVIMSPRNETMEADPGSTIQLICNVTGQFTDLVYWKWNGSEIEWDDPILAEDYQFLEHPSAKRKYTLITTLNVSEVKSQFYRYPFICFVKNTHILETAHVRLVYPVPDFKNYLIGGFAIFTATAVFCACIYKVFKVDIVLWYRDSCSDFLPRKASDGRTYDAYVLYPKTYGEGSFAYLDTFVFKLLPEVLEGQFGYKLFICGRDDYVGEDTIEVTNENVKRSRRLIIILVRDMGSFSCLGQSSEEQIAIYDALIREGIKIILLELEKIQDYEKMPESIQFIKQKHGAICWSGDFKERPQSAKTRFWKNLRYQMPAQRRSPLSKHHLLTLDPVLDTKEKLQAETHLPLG
T1 sequence (Q63621 21-570): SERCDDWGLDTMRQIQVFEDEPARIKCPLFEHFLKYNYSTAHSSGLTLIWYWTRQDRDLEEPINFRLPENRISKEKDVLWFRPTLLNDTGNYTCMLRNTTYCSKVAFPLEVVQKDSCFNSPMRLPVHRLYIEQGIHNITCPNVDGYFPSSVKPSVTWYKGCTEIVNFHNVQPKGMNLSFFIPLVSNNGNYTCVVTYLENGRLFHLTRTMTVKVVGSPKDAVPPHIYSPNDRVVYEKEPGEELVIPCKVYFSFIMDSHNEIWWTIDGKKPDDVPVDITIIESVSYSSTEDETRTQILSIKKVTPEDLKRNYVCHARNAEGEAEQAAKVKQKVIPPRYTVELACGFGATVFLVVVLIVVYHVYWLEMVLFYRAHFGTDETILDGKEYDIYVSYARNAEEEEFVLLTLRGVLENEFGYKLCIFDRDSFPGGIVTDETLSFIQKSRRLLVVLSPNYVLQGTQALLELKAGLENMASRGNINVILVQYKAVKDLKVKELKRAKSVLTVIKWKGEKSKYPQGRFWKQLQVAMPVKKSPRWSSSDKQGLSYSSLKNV
Experimental: Another way of assessing the effect of cytokine receptor subfragments on IL-1R activity in vivo is by measuring PGE2 levels in rat blood serum. Rat blood samples were collected from in vivo experiments (e.g., protocol for IL-1 induced hypotension) and centrifuged at maximum speed for 15 minutes. The serum was then passed through a Waters purification column to isolate the lipidic part. Samples were evaporated and PGE2 quantities were determined with a radioimmuno assay (RIA) using a commercial kit (Cederlane).
The API-101 derivatives, API-101.10 (and others) were also tested to assess whether they could reverse the physiological actions of the natural ligand in vivo by injecting the derivative through the jugular or directly into the stomach (to verify the stability of the peptide through the digestive tract). Sprague-Dawley rats (300 g) were anesthetized with isoflurane (2.5-4%). The natural ligand (IL-1β) or vehicle (saline) was injected through the jugular vein (5 μg/kg). […] Arterial blood pressure and heart rate were continuously monitored (Gould) while temperature and blood gases (Radiometer) were measured for routine analysis as previously described (Li et al., Am. J. Physiol. 273:R1283-R1290, 1997; Hardy et al., Pediatr. Res. 46:375-382, 1999; Najarian et al., Circ. Res. 87:1149-1156, 2000). […]

[1] = system: PMA-induced ear skin inflammation; assay: PMA-induced skin dermatitis of rat ears; type: in vivo; conditions: topical
Experimental: To verify the efficacy of a topical application of API-101.10 in a skin model of inflammation, 10 μl of 0.05% (in acetone) of the irritating agent PMA was applied on ears of 5 weeks old CD-1 male […] (Charles River) to induce contact dermatitis. The right ear received the vehicle only and left ear received the peptide or IL-1Ra analog Kineret® (Amgen). Ten μl of a final concentration of 10^−5M peptide diluted in PEG was applied 45 minutes and 4 hours after the induction of the inflammation with PMA. The commercial analog of IL-1R antagonist (IL-Ra), Kineret® was applied as a positive control at a concentration of 50 μg/10 μl of PEG. The drug was applied with a pipet tip adapted for the viscosity of the solution. Eighteen hours after the peptide treatment animals were sacrificed and ears were cut, weighed and their […] was measured with a caliper. Ear tumefaction (%) was determined: […] where a=thickness of left treated ear and b=thickness of right control ear.

Structure (SMILES): CC(C)C[C@@H](NC(=O)[C@@H](CCC(=O)O)NC(=O)[C@H](NC(=O)[C@H](NC(=O)[C@@H](Cc1ccc(O)cc1)NC(=O)[C@H](N)CCCNC(=N)N)[C@H](C)O)C(C)C)C(=O)N[C@H](C)C(N)=O [API-101.10, RYTVELA] (H-[dR][dY][dT][dV][dE][dL][dA]-NH2; N-terminus and C-terminus assumed)
- prevention of PGE2 synthesis in vivo (IL-1R/IL-1RacP): Higher inhibition
- ear weight compared with PMA-induced inflamed ear ([1]; 10^−5M in PEG): reduction in weight
- prevention of ear tumefaction ([1]; 10 μl of 10^−5M in PEG, 45 min and 4 h after PMA): 50%
